Experiments:
VEGFR2 = assay: VEGF-induced VEGFR2 phosphorylation; type: cell-based, human; conditions: HUVECs, 100 μM for 12 h, then 30 ng/mL VEGF 5 min; n = 3
[1] = system: tumor vascularization of B16F1 melanoma in C57BL/6 mice; assay: B16F1 melanoma tumor angiography (μCT) and CD31 immunostaining; type: in vivo, mouse; conditions: 10 mg/kg i.p. days 3, 5, 7
Method: For the subcutaneous melanoma tumor model, suspensions of B16F1 cells (2.5 × 10^5 cells in 100 μL RPMI-1640 medium) were subcutaneously injected into the left flank of different randomized series of syngeneic C57BL/6 mice (n = 8–10 per group), as previously described. Intraperitoneal administrations of peptide (10 mg/kg mouse weight) or controls (physiological serum 0.9% (w/v) NaCl or a scrambled peptide) were performed at days 3, 5 and 7. In human pancreatic carcinoma xenograft experiments, 3 × 10^6 MIA PaCa-2 cells/mouse were implanted subcutaneously into the left flank of BALB/C athymic nude mice, then TAX2 intraperitoneal treatments (10 mg/kg mouse weight) were performed 3 times a week during 4 weeks starting at day 10 after tumor cells inoculation. Tumor volume was determined according to v = 0.5 A × B^2, where A denotes the largest dimension of the tumor and B represents the smallest dimension. At days indicated, mice were sacrificed and tumors were surgically extracted and fixed in 4% paraformaldehyde for further morphologic studies and for magnetic resonance imaging, or frozen for immunohistochemistry. Mice were also weighed every 2–3 days and daily checked for any modification in their behavior. Loss of 15% body weight was an indication for euthanasia as well as severe tumor necrosis, as it was sometimes associated with skin ulceration that would result in loss of body fluid and/or infection.
Histological analysis of formaldehyde-fixed and paraffin-embedded tumors were performed on hemalun, phloxin and saffron (HPS) stained 3 μm thick sections prepared using routine histological methods. To assess tumor-associated microvessel density (MVD), CD31 immunostaining was performed on 5 μm thick cryosections using biotin-labeled secondary antibody and streptavidin-HRP AEC detection system (Microm Microtech, Francheville, France), followed by hematein counter-coloration. Negative controls were done omitting the primary antibody. The necrotic part relative to total tumor surface for each tumor slice as well as MVD were quantified using ImageJ software.
Animals were anesthetized by isoflurane (Forene, Abbott France, Rungis, France) inhalation (3% for induction and 1–1.5% for maintenance) and then after placed in a carbon fibers bed. CT images were acquired on a dedicated small animal μCT scanner (Skyscan 1076, Bruker, Kontich, Belgium) while continuously rotating the camera by 180° with the following parameters: 50 kV, 0.5 mm Al filter, 200 μA source current, 35 μm isotropic resolution, 180 ms exposure time, 4 projection images per 0.7° rotation step and a retrospective synchronization. The projections were reconstructed using a filtered backprojection algorithm using Skyscan software (NRecon, Skyscan). For tumor angiography analysis, an alkaline earth-based nanoparticulate contrast agent (Viscover ExiTron nano 12000, Miltenyi Biotec, Paris, France) was injected in the mouse tail vein. Mice were imaged during the next 30 min following injection, a period during which no reduction in contrast was observed. Analysis of reconstructed images and quantification of the vascular network were performed using Amira 5.4.3 software.

TSP-1 binding to FGF-2 = assay: Co-immunoprecipitation TSP-1 with FGF-2; type: cell-based, human; conditions: HUVECs, 100 μM; conditioned media
Method: (§1) Protein lysates prepared in ice-cold lysis buffer or conditioned media were subjected to immunoprecipitation assay using the Pierce Co-IP kit (Thermo Fisher Scientific) according to the manufacturer's protocol. 10 μg of antibody (anti CD47, anti-CD36, anti-FGF2, anti-VEGF, anti-β1 integrin and anti-LRP1 heavy chain) or non-specific IgGs were incubated with the delivered resin and covalently coupled. The antibody-coupled resin was incubated with whole HUVEC protein lysate overnight at 4°C under gentle agitation (no cross-linker was used to stabilize protein complexes before HUVEC lysis). Then the resin was washed and the protein complexes bound to the antibody were eluted. Immunoprecipitated protein complexes were solubilized under denaturing and reducing conditions, heated to 100°C for 5 min and analyzed by immunoblotting as described above. […]
(§2) receptors. HUVECs were treated with TAX2 (100 μM) or scrambled peptide (Ctrl, 100 μM). FGF-2 and VEGF were immunoprecipitated from conditioned media using anti-FGF-2 (clone C-18) and anti-VEGF (clone C-1), respectively. β1 integrin and LRP-1 were immunoprecipitated from total protein lysates using anti-β1 integrin (clone BV7) and anti-LRP-1 heavy chain (clone 8G1), respectively. […] Histogram represents the quantification of relative ligand-bound TSP-1 under TAX2 treatment as compared to control. […]

TSP-1 binding to LRP-1 = assay: Co-immunoprecipitation TSP-1 with LRP-1; type: cell-based, human; conditions: HUVECs, 100 μM; total protein lysates
Method: as §1, §2

[2] = system: cGMP production by endothelial cells (HUVECs); assay: Intracellular cGMP after NO stimulation; type: cell-based, human; conditions: 100 μM for 15 min, then 10 μM DEA-NONOate 10 min, 1 mM IBMX, n = 3 in triplicate, p < 0.05
Method: HUVECs (1 × 10^4 per well) were grown over 24 h in 96-well plates containing EGM-2 full growth medium and then serum-starved in EBM-2 containing 0.1% (v/v) BSA over additional 24 h. Cells were then pre-treated during 15 min with 100 μM TAX2 in EBM-2 without additives plus 0.1% (v/v) BSA before treatment with NO donor in presence of 1 mM IBMX as a phosphodiesterases inhibitor. After 10 min, intracellular cGMP levels were determined according to the manufacturer's instructions using an enzyme immunoassay kit (Amersham Biosciences).
Supplementary Figure S2: TAX2 inhibits intracellular cGMP production by endothelial cells under NO stimulation. HUVECs (1 × 10^4 per well) were seeded in 96-well plates, maintained in EGM-2 growth medium for 24 h, and then serum-starved for an additional 24 h in EBM-2 containing 0.1% (v/v) BSA. Endothelial cells were then pre-treated with 100 μM TAX2 for 15 min before addition of 10 μM DEA-NONOate. After 10 min, intracellular cGMP was quantified as described in Material & Methods. Results are expressed as percent compared to control (n = 3, each performed in triplicate; t test; * p < 0.05).
(also on this page, place not known: www.impactjournals.com/oncotarget/ Oncotarget, Materials 2015 Supplementary *p) […]

[3] = μCT angiography, representative of n = 5

For “CEVSQLLKGDAC (disulfide) [TAX2, CD47-derived cyclic disulfide dodecapeptide …]”, the “VEGF-induced VEGFR2 phosphorylation” value (VEGFR2) was “partially reverses VEGF-induced VEGFR2 phosphorylation”, the “tumor vasculature appearance in 3D reconstruction, day 14” value [1] was “highly anarchic and discontinuous, only at the tumor surface, surrounding a central hemorrhagic area” and the “blood vessel size (CD31)” value ([1]; tumor cryosections, n = 6) was “diminution in vessel size”. For the same sequence, the “diminution in intratumoral MVD (CD31)” value ([1]; tumor cryosections, n = 6) was 60%, the “blood vessels within tumors, day 7” value [1, 3] was “undetectable” and the “central vascular network within tumors, day 14” value [1, 3] was “still lacking and a wide hemorrhagic area corresponding to the previously described necrotic zone was observed”. The “intratumoral vascularization, day 10” value [1, 3] was “restricted to tumor periphery”, the “length and diameter of tumor blood vessels” value ([1]; μCT day 14) was “significantly decreased both the length and diameter of blood vessels” and the “reduction in blood vessel mean volume” value ([1]; μCT day 14) was 2 fold. For the same sequence, the “TSP-1 binding to FGF-2” value (TSP-1 binding to FGF-2) was “does not affect”, the “TSP-1 binding to LRP-1” value (TSP-1 binding to LRP-1) was “does not affect” and the “decrease of cGMP production after NO stimulation” value [2] was “around 25%”.

From paper PMC4627230, “Identification of TAX2 peptide as a new unpredicted anti-cancer agent” (Oncotarget, 2015)
